# Paper PMC6222307, “Phenanthrenes from Juncus Compressus Jacq. with Promising Antiproliferative and Anti-HSV-2 Activities” (Molecules : A Journal of Synthetic Chemistry and Natural …, 2018)
# Where two headings read alike, the source gives them in different places.
# Legend:
# HeLa cells [1] = system: HeLa cells; set-up: method as in PMID 23979834; conditions: read-out: cytotoxic activity; cited from earlier work
# MCF-7 cells [2] = system: MCF-7 cells; set-up: method as in PMID 23979834; conditions: read-out: cytotoxic activity; cited from earlier work
# MCF-7 cells [3] = system: MCF-7 cells; set-up: method as in PMID 26584913; conditions: cited from earlier work
# HeLa cells [4] = test: MTT antiproliferative assay, HeLa; type: cell-based, human; conditions: 72 h; for IC50: read-out: Calculated IC50 Value; for inhibition at 10 µM / inhibition at 30 µM: read-out: Growth Inhibition (%) ± SEM
# Experimental: (§1) The isolated phenanthrenes (Compounds 1–9) were tested for their antiproliferative activity against three human tumor cell lines (HeLa and SiHa (cervix adenocarcinoma) and A2780 (ovarian carcinoma)) using the 3-(4,5-dimethylthiazol-2-yl)-2,5-diphenyltetrazolium bromide (MTT) test with cisplatin as a positive control (Table 3). […] Based on the presented results, some structure-activity relationships could be obtained. […] Compounds bearing free hydroxy groups (in case of Compound 3) exerted more pronounced action than its methyl ether (Compound 7) or its oxymethylene derivative (Compound 6). The substantial difference in the activities of the isolated dimers (Compounds 2 and 8) could be attributed to the presence of a methyl group at C-6, which is favored in the monomers, too. Both the other cell lines were substantially less sensitive. […] Similarly, none of the presented agents elicited substantial (>40%) inhibition of the cell cancer proliferation during the applied 72 h of incubation against SiHa cells at 10 μM, and therefore, IC50 values were not determined.
# (§2) The antiproliferative properties of the isolated phenanthrenes were determined on a panel of human malignant cell lines isolated from cervical (HeLa and SiHa) and ovarian cancers (A2780) purchased from the European Collection of Cell Cultures (ECCAC, Salisbury, UK). Cells were cultivated in minimal essential medium supplemented with 10% fetal bovine serum, 1% non-essential amino acids and an antibiotic-antimycotic mixture. All media and supplements were obtained from Lonza Group Ltd., (Basel, Switzerland). Near-confluent cancer cells were seeded onto a 96-well microplate (5000 cells/well) and after an overnight standing, medium containing the tested compounds at 10 and 30 µM was added. After incubation for 72 h under cell culture conditions, the living cells were assayed by the addition of 20 µL of 5 mg/mL 3-(4,5-dimethylthiazol-2-yl)-2,5-diphenyltetrazolium bromide (MTT) solution. MTT was converted by intact mitochondrial enzymes and precipitated as purple crystals during a 4 h contact period. The medium was then removed and the formazan was dissolved in 100 µL of DMSO during a 60 min period of shaking at 37 °C. Finally, the reduced MTT was assayed at 545 nm using a microplate reader. […] All in vitro experiments were carried out on two microplates with five parallel wells. Stock solutions of the tested compounds (10 mM) were prepared in DMSO. […] Cisplatin (Ebewe Pharma GmbH, Unterach, Austria) was used as a reference agent.
# SiHa cells = test: MTT antiproliferative assay, SiHa; type: cell-based, human; conditions: 72 h; for inhibition at 10 µM / inhibition at 30 µM: Homo sapiens, read-out: Growth Inhibition (%) ± SEM
# Experimental: as §1, §2
# A2780 cells = test: MTT antiproliferative assay, A2780; type: cell-based, human; conditions: for IC50: read-out: Calculated IC50 Value; for inhibition at 10 µM / inhibition at 30 µM: read-out: Growth Inhibition (%) ± SEM
# Experimental: as §1, §2
# [5] = system: HepG2 (liver hepatocellular carcinoma); set-up: method as in PMID 26584913; conditions: cited from earlier work
# HeLa cells [6] = system: HeLa cells; set-up: method as in PMID 26584913; conditions: cited from earlier work
# HSV-2 = system: HSV-2; set-up: method as in PMID 11463529; conditions: 6.25 µM; cited from earlier work
# HepG2 = system: HepG2; set-up: method as in PMID 26072042; conditions: HepG2, CCK-8 assay; cited from earlier work
# MCF-7 = system: MCF-7; set-up: method as in PMID 26072042; conditions: MCF-7, CCK-8 assay; cited from earlier work
# SMMC-7721 = system: SMMC-7721; set-up: method as in PMID 26072042; conditions: SMMC-7721, CCK-8 assay; cited from earlier work
# [7] = Homo sapiens, A2780, 10 μM, 72 h, MTT
# [8] = Homo sapiens, A2780, 30 μM, 72 h, MTT
Compound,"inhibition at 10 µM (HeLa cells [4]; Homo sapiens, 10 μM, MTT) [%]","inhibition at 30 µM (HeLa cells [4]; Homo sapiens, 30 μM, MTT) [%]","IC50 (HeLa cells [4]; Homo sapiens, MTT) [µM]","inhibition at 10 µM (SiHa cells; 10 μM, MTT) [%]","inhibition at 30 µM (SiHa cells; 30 μM, MTT) [%]",inhibition at 10 µM (A2780 cells; [7]) [%],inhibition at 30 µM (A2780 cells; [8]) [%],also measured
"Cc1c(O)ccc2c1CCc1cc(O)cc(C=O)c1-2 [2,7-dihydroxy-1-methyl-5-aldehyde-9,10-dihydrophenanthrene]",,,,,,,,IC50 (HeLa cells [1]): 19.6 µM; IC50 (MCF-7 cells [2]): 9.17 µM
"COC(C)c1cc(O)cc2ccc3c(C)c(O)ccc3c12 (stereo not drawn) [5-(1-methoxyethyl)-1-methyl-phenanthren-2,7-diol]",,,,,,,,IC50 (MCF-7 cells [3]): 10.9 µM
"N.N.[Cl][Pt][Cl] [Cisplatin, reference compound]",,,,,,,,"Growth Inhibition (%) ± SEM (HeLa cells [4]; 10 μM, MTT): 42.61 ± 2.33%; Growth Inhibition (%) ± SEM (HeLa cells [4]; 30 μM, MTT): 99.93 ± 0.26%; IC50 (HeLa cells [4]; MTT): 12.4 µM; Growth Inhibition (%) ± SEM (SiHa cells; 10 μM, MTT): 88.64 ± 0.50%; Growth Inhibition (%) ± SEM (SiHa cells; 30 μM, MTT): 90.18 ± 7.78%; IC50 (SiHa cells; MTT, read-out: Calculated IC50 Value): 7.84 µM; Growth Inhibition (%) ± SEM (A2780 cells; A2780, 10 μM, 72 h, MTT): 83.57 ± 1.21%; Growth Inhibition (%) ± SEM (A2780 cells; A2780, 30 μM, 72 h, MTT): 95.02 ± 0.28%; IC50 (A2780 cells; A2780, 72 h, MTT): 1.3 µM"
"C=Cc1c(C)c(O)cc2c1-c1ccc(OC)c(C)c1CC2 [Compound 1, compressin A]",41.7 ± 1.1,93.73 ± 0.36,11.3,< 10,38.6 ± 0.78,47.6 ± 1.58,73 ± 0.47,"IC50 (A2780 cells; Homo sapiens, A2780, 72 h, MTT): 13.2 µM"
"C=Cc1c(C)c(O)cc2c1-c1cc(-c3cc4c(c(C)c3O)CCc3cc(O)c(C)c(C=C)c3-4)c(O)c(C)c1CC2 [Compound 2, compressin B]",92.03 ± 0.44,92.38 ± 0.15,1.86,< 10,32.8 ± 0.88,< 10,64.8 ± 1.95,
"C=Cc1cc(O)cc2c1-c1ccc(O)c(C)c1CC2 [Compound 3, effusol]",96.37 ± 0.28,97.77 ± 0.27,3.68,< 10,< 10,< 10,50.5 ± 1.59,
"COC(C)c1cc(O)cc2c1-c1ccc(O)c(C)c1CC2 (stereo not drawn) [Compound 4, effususol]",< 10,30.4 ± 1.91,,< 10,14.2 ± 2.75,18.3 ± 0.42,72 ± 1.06,
"C=Cc1cc(CO)cc2c1-c1ccc(O)c(C)c1CC2 [Compound 6, 2-hydroxy-1-methyl-7-oxymethylene-5-vinyl-9,10-dihydrophenanthrene]",96.8 ± 0.28,98.77 ± 0.24,4.17,< 10,10.2 ± 1.47,< 10,< 10,
"C=Cc1cc(O)cc2c1-c1ccc(OC)c(C)c1CC2 [Compound 7, 7-hydroxy-1-methyl-2-methoxy-5-vinyl-9,10-dihydrophenanthrene]",45.4 ± 1.57,92.36 ± 0.23,10.7,14.2 ± 0.98,29.5 ± 3.36,< 10,63.2 ± 2.54,
"C=Cc1cc(O)cc2c1-c1cc(-c3cc4c(c(C)c3O)CCc3cc(O)cc(C=C)c3-4)c(O)c(C)c1CC2 [Compound 8, effususin A]",< 10,10.4 ± 0.47,,< 10,14.4 ± 1.48,< 10,72.7 ± 1.82,
"C=Cc1cc(O)cc2ccc3c(C)c(O)ccc3c12 [Compound 9, dehydroeffusol]",,,,,,,,"IC50 (HeLa cells [4]; Homo sapiens): 7.75 µM; inhibition at 10 µM (HeLa cells [4]; Homo sapiens): 75.2 ± 2.48%; inhibition at 30 µM (HeLa cells [4]; Homo sapiens): 96.5 ± 0.32%; inhibition at 10 µM (SiHa cells): < 10%; inhibition at 30 µM (SiHa cells): 28.7 ± 2.01%; inhibition at 10 µM (A2780 cells; Homo sapiens, A2780, 72 h): < 10%; inhibition at 30 µM (A2780 cells; Homo sapiens, A2780, 72 h): 57.3 ± 2.58%"
Cc1c(O)ccc2c1ccc1cc(O)cc(C=O)c12 [Dehydroeffusal],,,,,,,,IC50 [5]: 12.4 µM; IC50 (HeLa cells [6]): 13.1 µM
Nc1nc2c(ncn2COCCO)c(=O)[nH]1 [acyclovir],,,,,,,,reduction of HSV-2 yield (HSV-2): 1–5.06 log10
"COc1cccc2c1C(=O)c1c(O)c3c(c(O)c1C2=O)C[C@@](O)(C(=O)CO)C[C@@H]3O[C@H]1C[C@H](N)[C@H](O)[C@H](C)O1 [adriamycin, reference compound]",,,,,,,,IC50 (HeLa cells [1]): 0.539 µM; IC50 (MCF-7 cells [2]): 0.406 µM
C=Cc1cc(O)cc2c1-c1cc(-c3c(O)cc(C=C)c4c3ccc3c(C)c(O)ccc34)c(O)c(C)c1CC2 [effususin B],,,,,,,,IC50 (HepG2): 12.9 µM; IC50 (MCF-7): 12.5 µM; IC50 (SMMC-7721): 13.6 µM
"CC(=O)O[C@H]1C(=O)[C@@]2(C)[C@H]([C@H](OC(=O)c3ccccc3)[C@]3(O)C[C@H](OC(=O)[C@H](O)[C@@H](NC(=O)c4ccccc4)c4ccccc4)C(C)=C1C3(C)C)[C@]1(OC(C)=O)CO[C@@H]1C[C@@H]2O [paclitaxel, reference compound]",,,,,,,,IC50 (HepG2): 36.8 µM; IC50 (MCF-7): 28.6 µM; IC50 (SMMC-7721): 0.09 µM
